Measured values reported in patent US20110014226A1, “HIGH […] I[…]” (priority 2008, published 2011).

Key:
D5 binding to 5-helix = test: D5 Competitive Binding Assay (DCBA) high throughput screen with F19 counter-screen; parameters: species or system HIV-1; settings: among the compounds listed in Table 2; DCBA primary screen vs F19 counter-screen
Text: An in vitro binding assay was developed using D5 IgG conjugated to europium cryptate (Eu-D5) and a biotinylated gp41 mimetic molecule that presents the hydrophobic pocket in a stabilized structural context (termed 5-helix (or 5H) peptide). The assay readout is based on a fluorescence resonance energy transfer (FRET) format. Biotin-5-helix binds to a streptavidin-conjugated allophycocyanin (APC) substrate to form a 5H-SA-APC complex. When Eu-D5 binds to the hydrophobic pocket of biotin-5H, it brings the Eu into close proximity with the APC substrate to allow FRET from Eu to APC. When the reaction system is excited at a wavelength of 340 nm, the Eu signals at 620 nm. If the Eu is in close proximity to the APC, it excites the APC which results in long-lived emissions at 665 nm. Introducing a time delay (e.g., ˜100 μseconds) between the system excitation and fluorescence measurement allows the FRET signals to be cleared of non-specific short-lived emissions (“time-resolved FRET”). The resulting specific FRET signal indicative of the amount of Eu-D5 bound to biotin-5H can be quantified by the ratio of fluorescence [counts at 665 nm/fluorescence counts at 620 nm]×10,000. […]
Briefly, the assay was performed in the following manner. […] The plate was then read using the Fusion Universal Microplate Analyzer (Packard Bioscience). […]

CRM197 = settings: mouse, in vivo
ccIZN17 = test: ELISA of mouse antisera after immunization, coated with ccIZN17; assay type: in vivo; settings: balb/c mice, 25 μg conjugate intramuscularly three times at 2-week intervals, Merck aluminum alum + IMO-2055; reciprocal endpoint titers by ELISA
5-helix = settings: in vivo; for Post-dose 3 geometric mean antibody titer (GMT) elicited versus 5-helix: mouse
[1] = ELISA of mouse antisera after immunization, coated with biotinylated Compound 2.58; assay type: in vivo; settings: balb/c mice, 25 μg conjugate intramuscularly three times at 2-week intervals, Merck aluminum alum + IMO-2055; reciprocal endpoint titers by ELISA
ccIZN36 = test: ELISA of mouse antisera after immunization, coated with ccIZN36; assay type: in vivo; settings: balb/c mice, 25 μg conjugate intramuscularly three times at 2-week intervals, Merck aluminum alum + IMO-2055; reciprocal endpoint titers by ELISA
[2] = ELISA of mouse antisera after immunization with hapten-CRM197 conjugates, coated with biotinylated Compound 2.45; assay type: in vivo; settings: balb/c mice, 25 μg conjugate intramuscularly three times at 2-week intervals, Merck aluminum alum + IMO-2055; reciprocal endpoint titers by ELISA

Row | SMILES | specific inhibition of D5 binding relative to F19 inhibition (D5 binding to 5-helix) | Post-dose 3 geometric mean antibody titer (GMT) elicited versus CRM197 (CRM197) | Post-dose 3 geometric mean antibody titer (GMT) elicited versus ccIZN17 (ccIZN17) | binding activity of individual mouse sera in the 5H ELISA (5-helix) | Post-dose 3 geometric mean antibody titer (GMT) elicited versus 5-helix (5-helix) | Post-dose 3 geometric mean antibody titer (GMT) elicited versus Compound 2.58 [1] | Post-dose 3 geometric mean antibody titer (GMT) elicited versus ccIZN36 (ccIZN36) | Post-dose 3 geometric mean antibody titer (GMT) elicited versus Compound 2.45 [2]
1 | CCNC(=O)[C@]1(Cc2ccccc2)CCCN(C(=O)[C@@H](Cc2ccc3ccccc3c2)NC(=O)N2CC(C)NC(C)C2)C1 (stereo partly drawn) [Compound 1.1] | the best in terms of specific inhibition of D5 binding relative to F19 inhibition | – | – | – | – | – | – | –
2 | CCNC(=O)[C@]1(Cc2ccccc2)CCCN(C(=O)[C@@H](Cc2ccc3ccccc3c2)NC(=O)N2CCNCC2)C1 [Compound 2.45] | – | 1,600 | <100 | more pronounced binding activity | 400 | >1,600,000 | <100 | >1,600,000
3 | CCNC(=O)[C@]1(Cc2ccccc2)CCCN(C(=O)[C@@H](Cc2ccc(Cl)c(Cl)c2)NC(=O)N[C@@H]2CCCNC2)C1 [Compound 2.58] | – | 400 | 200 | more pronounced binding activity | 200 | 713,155 | <100 | >1,600,000
